Drawing on patent publication US20250122192A1, “5-PYRIMIDINECARBOXAMIDE DERIVATIVES AND METHODS OF USING THE SAME” (Rgenta Therapeutics, Inc., priority 2021, published 2025), this text covers IC50 and activation for 38 compounds.

The test system of one test is PMS1. The experiment in a line: Mini-gene reporter assay-PMS1. In kind it is cell-based. Conditions: Homo sapiens, HEK293, PMS1 mini-gene firefly luciferase reporter transiently transfected into HEK293 cells; read-out: PMS1 IC50. An excerpt:
Biological Activity of the Compounds of the Present Disclosure Mini-gene reporter assay-PMS1
Mini-gene reporter constructs for each target site can be constructed by first PCR amplifying the region-of-interest including the sequence of the alternatively skipped, sequences of the immediate upstream and downstream introns, and sequences of the immediate upstream and downstream exons. Then the 3′end of the amplified sequence can be ligated to a firefly luciferase reporter gene and cloned into the pcDNA3.1 vector backbone. The final reporter construct can be transiently transfected into HEK293 cells using Lipofectamine 3000 transfection reagents. Compounds that can induce the inclusion of the skipped exon in the reporter construct would increase the reporter firefly luciferase activity.
Test compounds may be diluted in duplicates and dispensed into an assay plate. Transient mini-gene reporter cell line stock is resuspended and dispensed into the assay plate. Assay plates are then centrifuged and incubated. A luciferase reagent (e.g. ONE-Glo firefly luciferase reagent from Promega®) may be added to the assay plate and the luminescence (RLU) signals recorded. PMS1 EC50 values may be determined by curve fitting in Levenberg-Marquardt algorithm.
A general note: In a reporter assay the amount or activity of a reporter protein is the signal.
The IC50 is the midpoint of a concentration-inhibition curve. `CCOc1nc(N2CCNC(CC)C2)ncc1C(=O)Nc1cc(F)c2nc(C)cn2c1` (centres unmarked) [Compound 11, 4-ethoxy-2-(3-ethylpiperazin-1-yl)-N-{8-fluoro-2-methylimidazo[1,2-a]pyridin-6-yl}pyrimidine-5-carboxamide]: the IC50 was less than 0.5 µM. In the case of `CCOc1nc(N2CCNCC2)ncc1C(=O)Nc1cc(F)c2nc(C)oc2c1` [Compound 12, 4-ethoxy-N-(4-fluoro-2-methyl-1,3-benzoxazol-6-yl)-2-(piperazin-1-yl)pyrimidine-5-carboxamide], the IC50 lay in the range of 1 to 3 µM. Regarding `CCOc1nc(N2CCN[C@H](C)C2)ncc1C(=O)Nc1cc(F)c2nc(C)oc2c1` [Compound 13], the IC50 lay in the range of 0.5 to 1 µM. For the compound `CCOc1nc(N2CC3CNCC3C2)ncc1C(=O)Nc1cc(F)c2nc(C)oc2c1` (centres unmarked) [Compound 14, 4-ethoxy-N-(4-fluoro-2-methyl-1,3-benzoxazol-6-yl)-2-{octahydropyrrolo[3,4-c]pyrrol-2-yl}pyrimidine-5-carboxamide], the IC50 is less than 0.5 µM. With `CCOc1nc(N2CCCNCC2)ncc1C(=O)Nc1cc(F)c2nc(C)cn2c1` [Compound 15, 2-(1,4-diazepan-1-yl)-4-ethoxy-N-{8-fluoro-2-methylimidazo[1,2-a]pyridin-6-yl}pyrimidine-5-carboxamide], the IC50 was less than 0.5 µM. On the same count and under the same terms, with `CCOc1nc(N2CCNCC2)ncc1C(=O)Nc1cn2cc(C)nc2c(C)n1` [Compound 16, N-{2,8-dimethylimidazo[1,2-a]pyrazin-6-yl}-4-ethoxy-2-(piperazin-1-yl)pyrimidine-5-carboxamide] the figure was more than 3 µM. As to `CCOc1nc(N2CC3(CCNCC3)C2)ncc1C(=O)Nc1cn2cc(C)nc2c(C)n1` [Compound 17], the IC50 is less than 0.5 µM. As to `CCOc1nc(N2CC3(CNC3)C2)ncc1C(=O)Nc1cn2cc(C)nc2c(C)n1` [Compound 18, 2-{2,6-diazaspiro[3.3]heptan-2-yl}-N-{2,8-dimethylimidazo[1,2-a]pyrazin-6-yl}-4-ethoxypyrimidine-5-carboxamide], the IC50 is less than 0.5 µM. Still for that read-out and setting: with `CCOc1nc(N2CC3CNCC3C2)ncc1C(=O)Nc1cn2cc(C)nc2c(C)n1` (centres unmarked) [Compound 20, N-{2,8-dimethylimidazo[1,2-a]pyrazin-6-yl}-4-ethoxy-2-{octahydropyrrolo[3,4-c]pyrrol-2-yl}pyrimidine-5-carboxamide] the figure was less than 0.5 µM; with `Cc1cn2cc(NC(=O)c3cnc(N4CCNCC4)nc3)cc(F)c2n1` [Compound 21, N-{8-fluoro-2-methylimidazo[1,2-a]pyridin-6-yl}-2-(piperazin-1-yl)pyrimidine-5-carboxamide], 1 to 3 µM; with `COc1nc(N2CC3CNCC3C2)ncc1C(=O)Nc1cn2cc(C)nc2c(C)n1` (centres unmarked) [Compound 22, N-{2,8-dimethylimidazo[1,2-a]pyrazin-6-yl}-4-methoxy-2-{octahydropyrrolo[3,4-c]pyrrol-2-yl}pyrimidine-5-carboxamide], less than 0.5 µM. In the case of `CCOc1nc(N2CCNC3CCCCC32)ncc1C(=O)Nc1cn2cc(C)nc2c(C)n1` (centres unmarked) [Compound 23], the 50% inhibitory concentration (IC50) is more than 3 µM. As for `CCOc1nc(N2CCNCC2)ncc1C(=O)Nc1ccc2nn(C)cc2c1` [Compound 25, 4-ethoxy-N-(2-methyl-2H-indazol-5-yl)-2-(piperazin-1-yl)pyrimidine-5-carboxamide], the concentration for half-maximal inhibition (IC50) was 1 to 3 µM. Regarding `CCOc1nc(N2CCNCC2)ncc1C(=O)Nc1cc(F)c2nn(C)cc2c1` [Compound 26, 4-ethoxy-N-(7-fluoro-2-methyl-2H-indazol-5-yl)-2-(piperazin-1-yl)pyrimidine-5-carboxamide], the IC50 fell in the range of 0.5 to 1 µM. With `CCOc1nc(N2CCNCC2)ncc1C(=O)Nc1cc(OC)c2nc(C)cn2c1` [Compound 27, 4-ethoxy-N-{8-methoxy-2-methylimidazo[1,2-a]pyridin-6-yl}-2-(piperazin-1-yl)pyrimidine-5-carboxamide], the IC50 fell in the range of 0.5 to 1 µM. With `CCOc1nc(N2CC3CNCC3C2)ncc1C(=O)Nc1cn2cc(C)nc2cn1` (centres unmarked) [Compound 28, 4-ethoxy-N-{2-methylimidazo[1,2-a]pyrazin-6-yl}-2-{octahydropyrrolo[3,4-c]pyrrol-2-yl}pyrimidine-5-carboxamide], the IC50 is 1 to 3 µM. For the compound `CCOc1nc(N2CC(C)NCC2C)ncc1C(=O)Nc1cn2cc(C)nc2c(C)n1` (centres unmarked) [Compound 32], the IC50 fell in the range of 1 to 3 µM.

For `CCOc1nc(N2CC3(CC(NC)CO3)C2)ncc1C(=O)Nc1cn2cc(C)nc2c(C)n1` (centres unmarked) [Compound 33], the IC50 is more than 3 µM.

As for `CCOc1nc(N2CCCC(C3CCCCN3)C2)ncc1C(=O)Nc1cn2cc(C)nc2c(C)n1` (centres unmarked) [Compound 34], the IC50 is more than 3 µM. `CCOc1nc(N2CCNC(C)C2C)ncc1C(=O)Nc1cn2cc(C)nc2c(C)n1` (centres unmarked) [Compound 35]: the IC50 is more than 3 µM. The same measure, in the same setting: as for `CCN(c1ncc(C(=O)Nc2cn3cc(C)nc3c(C)n2)c(COC)n1)C1CCNCC1` [Compound 36], the figure is less than 0.5 µM; as for `CCOc1nc(N(C)C2CC3CCC(C2)N3)ncc1C(=O)Nc1cn2cc(C)nc2c(C)n1` (centres unmarked) [Compound 37], less than 0.5 µM. As for `CCOc1nc(N2CCC(C3CCCN3)C2)ncc1C(=O)Nc1cn2cc(C)nc2c(C)n1` (centres unmarked) [Compound 38], the IC50 is 1 to 3 µM. Turning to `CCOc1nc(N2CCC(NC)CC2)ncc1C(=O)Nc1cn2cc(C)nc2c(C)n1` [Compound 39], the IC50 is less than 0.5 µM. As to `CCOc1nc(N2CCNCCC2C)ncc1C(=O)Nc1cn2cc(C)nc2c(C)n1` (centres unmarked) [Compound 40], the IC50 is 1 to 3 µM.

In the case of `CCOc1nc(N2CCNCC2C)ncc1C(=O)Nc1cn2cc(C)nc2c(C)n1` (centres unmarked) [Compound 42], the IC50 was 0.5 to 1 µM. Turning to `CCOc1nc(N2CC(NC)C2)ncc1C(=O)Nc1cn2cc(C)nc2c(C)n1` [Compound 43], the IC50 is more than 3 µM. In the case of `CCOc1nc(N2CC3C4CCC(NC4)C3C2)ncc1C(=O)Nc1cn2cc(C)nc2c(C)n1` (centres unmarked) [Compound 44], the IC50 lay in the range of 1 to 3 µM. `CCNC1COC2(C1)CN(c1ncc(C(=O)Nc3cn4cc(C)nc4c(C)n3)c(OCC)n1)C2` (centres unmarked) [Compound 45]: the IC50 was more than 3 µM. In the case of `CCOc1nc(N(C)C2CCCNCC2)ncc1C(=O)Nc1cn2cc(C)nc2c(C)n1` (centres unmarked) [Compound 46], the IC50 is less than 0.5 µM. `CCOc1nc(N2CC3CCNCC32)ncc1C(=O)Nc1cn2cc(C)nc2c(C)n1` (centres unmarked) [Compound 48]: the IC50 is more than 3 µM. In the case of `CCOc1nc(N2CCCC3CNCCC32)ncc1C(=O)Nc1cn2cc(C)nc2c(C)n1` (centres unmarked) [Compound 49], the IC50 was less than 0.5 µM. With `CCOc1nc(N2CC3(CCNC3)C2)ncc1C(=O)Nc1cn2cc(C)nc2c(C)n1` [Compound 51], the IC50 is less than 0.5 µM.

`CCOc1nc(N2CC(C3CNC3)C2)ncc1C(=O)Nc1cn2cc(C)nc2c(C)n1` [Compound 52]: the IC50 is more than 3 µM.

The test is the same for the next values; noted with them: Homo sapiens; at 5 μM; PMS1 mini-gene firefly luciferase reporter in HEK293 cells; read-out: PMS1% Effect at 5 μM.
Consider `CCOc1nc(N2CCN[C@@H](C)C2)ncc1C(=O)Nc1cn2cc(C)nc2c(C)n1` [Compound 19, N-{2,8-dimethylimidazo[1,2-a]pyrazin-6-yl}-4-ethoxy-2-[(3S)-3-methylpiperazin-1-yl]pyrimidine-5-carboxamide], for which the activation at 5 µM is 50 to 75%. On the same count and under the same terms, as for `CCOc1nc(N2CC3(CCN3)C2)ncc1C(=O)Nc1cn2cc(C)nc2c(C)n1` [Compound 24], the figure is 50 to 75%; as for `CCOc1nc(N2CCNC3CC32)ncc1C(=O)Nc1cn2cc(C)nc2c(C)n1` (centres unmarked) [Compound 47], less than 50%; as for `CCOc1nc(N2CC(CO)C3(CNC3)C2)ncc1C(=O)Nc1cn2cc(C)nc2c(C)n1` (centres unmarked) [Compound 50], less than 50%.
